Reference: ChEMBL document CHEMBL1177692 (Bioorg Med Chem, 2010)

Molecular target: Carbonic anhydrase 9 (Homo sapiens, UniProt Q16790)
Assay: Inhibition of human recombinant carbonic anhydrase 9 catalytic domain preincubated for 15 mins by CO2 hydration method

Ki [nM]	Compound
14	COc1ccc2c(CC(=O)Nc3cc(C(F)(F)F)c(S(N)(=O)=O)cc3S(N)(=O)=O)cc(=O)oc2c1
87	COc1ccc2c(CC(=O)Nc3ccc(S(N)(=O)=O)cc3)cc(=O)oc2c1
59	COc1ccc2c(CC(=O)Nc3cccc(S(N)(=O)=O)c3)cc(=O)oc2c1
